Assays:
[1] = system: marble burying behaviour in mice; assay: Mouse Marble Burying Assay (BUR); format: in vivo; conditions: Mus musculus, sc; Table 3; read-out: BUR s.c. ED50
Description: This assay was carried out essentially according to the procedure described by Treit et al. (1981) Pharmacol Biochem Behav; 15; 619-626.
The results are presented as BUR ED50 (sc). This is the effective dose causing 50% inhibition of burying compared to control mice.

[2] = system: hyperpolarisation-activated inward cation current Ih in dorsal root ganglion (DRG) cells; assay: Inhibition of hyperpolarisation-activated cation current (Ih), whole cell voltage clamp on cultured DRG cells; format: cell-based, rat; conditions: at 1E-5 M
Ih channel = conditions: cited from earlier work

Question: For C=CCC(N)c1ccccc1-c1noc2ncccc12.O=C(O)/C=C\C(=O)O (stereo not drawn) [16 (5), 2-(isoxazolo[5,4-b]pyridin-3-yl)-α-2-propenyl-benzenemethanamine (Z)-butenedioate], which ED50 [1] is on record?
Answer: 1.7 mg/kg

Question: What about the melting point of the same compound?
Answer: 187 to 188 °C (dec.)

Question: What about the “Ih amplitude, inhibition” value [2] of the same compound?
Answer: 90% inhibition at 1E-5

Question: For CCN(c1ccccc1)c1cc(NC)[n+](C)c(C)n1 [ZD7288, 4-(N-ethyl-N-phenylamino)-1,2-dimethyl-6-(methyiamino)-pyrimidinium-chloride], which IC50 (Ih channel; Harris and Constanti 1995, read-out: IC50 for blocking Ih) is on record?
Answer: 2 µM

Question: With [Ba] [barium] as the compound, how does the “block of the Ih channel” value (Ih channel; 1 mM barium (Ba2+)) read?
Answer: not blocked

Question: Which “concentration blocking Ih” value (Ih channel; Pape 1996) does the source give for [Cs] [caesium] here?
Answer: 1 to 5 mM

Source: US20020037885A1, “Therapeutic compounds” (priority 1999, published 2002)
